≈ marks a conversion by molar mass, not a printed value. Where “and” joins values, the source holds several entries; their conditions need not be identical. Equal values may be shown once. Entries after “also recorded” stand apart in the source; their conditions may differ.
Key:
Mammalian SERCA = target: T1, Mammalian SERCA (Oryctolagus cuniculus, UniProt P04191); experiment: ATP hydrolysis inhibition, SERCA; type: biochemical; settings: rabbit SERCA, racemic compounds, n = 3
T1 construct: Ca^2+ ATPase was provided in SR membranes purified by extraction with a low concentration of deoxycholate (DOC); from tissue; host or cells: sarcoplasmic reticulum membranes (rabbit)
T1 sequence (P04191 1-994 isoform P04191-2): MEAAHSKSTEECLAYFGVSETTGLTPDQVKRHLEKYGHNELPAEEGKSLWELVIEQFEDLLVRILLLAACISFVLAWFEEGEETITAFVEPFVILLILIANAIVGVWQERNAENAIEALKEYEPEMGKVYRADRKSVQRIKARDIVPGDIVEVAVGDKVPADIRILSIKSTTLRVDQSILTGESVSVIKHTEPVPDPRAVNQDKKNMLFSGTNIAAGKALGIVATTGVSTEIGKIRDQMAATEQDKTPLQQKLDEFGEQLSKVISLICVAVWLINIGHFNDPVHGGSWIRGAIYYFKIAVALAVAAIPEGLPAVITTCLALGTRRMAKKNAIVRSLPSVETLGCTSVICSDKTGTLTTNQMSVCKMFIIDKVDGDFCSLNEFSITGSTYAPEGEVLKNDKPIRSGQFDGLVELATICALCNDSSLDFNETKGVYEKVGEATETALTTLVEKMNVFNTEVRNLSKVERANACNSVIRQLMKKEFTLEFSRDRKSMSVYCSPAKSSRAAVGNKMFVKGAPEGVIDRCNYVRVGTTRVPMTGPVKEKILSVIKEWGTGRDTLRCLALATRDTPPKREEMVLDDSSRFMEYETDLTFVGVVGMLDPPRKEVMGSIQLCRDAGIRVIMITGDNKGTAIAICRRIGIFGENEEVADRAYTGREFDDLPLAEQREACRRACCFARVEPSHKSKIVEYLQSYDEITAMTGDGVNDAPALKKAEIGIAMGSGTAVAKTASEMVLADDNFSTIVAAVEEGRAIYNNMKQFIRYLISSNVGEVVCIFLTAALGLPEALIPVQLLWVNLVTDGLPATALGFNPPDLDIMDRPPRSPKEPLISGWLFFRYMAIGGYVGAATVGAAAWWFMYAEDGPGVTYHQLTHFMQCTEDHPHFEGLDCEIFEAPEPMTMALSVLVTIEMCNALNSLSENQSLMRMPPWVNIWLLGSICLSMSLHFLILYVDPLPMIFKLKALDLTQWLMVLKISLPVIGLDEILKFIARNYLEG
Excerpt: All membrane batches were validated by determining ATPase activity, pH optimum and orthovanadate sensitivity. Sarco/endoplasmatic reticulum (SR) Ca^2+ ATPase was provided in SR membranes purified by extraction with a low concentration of deoxycholate (DOC) and was kindly provided by Claus E. Olesen and Jesper V. Møller, Aarhus University and prepared as described in [43]. The pig kidney Na^+,K^+-ATPase purification included a mild SDS treatment of isolated microsomes followed by a washing step and was kindly provided by Natalya Fedosova, Aarhus University and prepared as described in [44].
(§1) ATPase activity was determined by measuring the amount of liberated phosphate from ATP hydrolysis. The ATPase assay was performed in 96 well plates in a final reaction volume of 60 μL. 0.1–0.2 μg/well of DOC extracted SERCA membrane or the Na^+,K^+-ATPase was used, while 1–2.5 μg/well was used of the Pma1 membrane preparation. Reactions, including protein membrane preparation and various concentrations of exogenously added compounds, were conducted in the following buffers; Pma1 buffer: 17.5 mM MOPS-NaOH pH 7, 7 mM MgSO4, 44 mM KNO3 (vacuolar ATPase inhibitor), 22 mM NaN3 (mitochondrial ATPase inhibitor), 0.22 mM Na2MoO4 (acid phosphatase inhibitor); SERCA buffer: 9 mM MOPS-NaOH pH 7, 2.7 mM MgCl2, 0.1 mM CaCl2 and 72 mM KCl. Na^+,K^+-ATPase buffer: 30 mM MOPS-NaOH pH 7, 40 mM NaCl, 4 mM MgCl2 and 20 mM KCl. Reactions were initiated by the addition of Na-ATP to a final concentration of 2.5 mM (Pma1 and Na^+,K^+-ATPase) or 5 mM (SERCA), followed by 30 minutes incubation at 30°C. […] Absorption was measured at 860 nm after additional 30 minutes incubation at RT.

[1] = tested on: yeasts Saccharomyces cerevisiae, Candida albicans, Candida krusei and Candida glabrata; experiment: Fungal growth inhibition; type: cell-based; settings: species not given; for MIC: antifungal activity
Excerpt: (§2) Fungal isolates were purchased from American Type Culture Collection, except for C. glabrata strain Cg003, which was kindly provided by Julius Subik, Comenius University in Bratislava, Slovak Republic. Cg003 is a clinical isolate, characterized to be resistant to fluconazole and itraconazole due to overexpression of the multidrug resistance efflux pumps Cdr1p and Cdr2p. Saccharomyces cerevisiae (ATCC 9763), Candida albicans (ATCC 90028), Candida albicans (SC5314), Candida glabrata (ATCC 90030), Candida glabrata (Cg003) and Candida krusei (ATCC 6258) were grown in Sabouraud broth (40 g/L D-glucose, 10 g/L peptone, pH 5.6) or YPD (10 g/L yeast extract, 20 g/L Bacto-peptone, 20 g/L glucose) medium to mid log phase, aliquoted into 20% (v/v) glycerol and cryopreserved as stocks at -80°C. For each growth assay, cells from these stocks were diluted in sterile water to OD600 = 0.025, which corresponds to a final starting inoculum of 0.5–2.5 x 10^5 CFU/mL. Growth assays were carried out by pipetting 3 μL compound dissolved in DMSO, 100 μL cell suspension and 97 μL 2 x RPMI media (20.8 g/L RPMI-1640 (Sigma-Aldrich catalog number R6504) 330 mM MOPS, 36 g/L glucose) into a microtiter plate and incubating for 24 h at 34°C, followed by OD measurement at 490 nm. The minimum inhibitory concentration (MIC) was defined as 50% growth inhibition of the microorganism as this measurement best represented the antifungal activity of the compounds. Standard errors were typically below 5%.

[2] = target: T2, Saccharomyces cerevisiae Pma1 (Saccharomyces cerevisiae, UniProt P05030); experiment: ATP hydrolysis inhibition, S. cerevisiae Pma1; type: biochemical; settings: for Pma1 inhibition (in words): Pma1 species not specified; for Selectivity among P-type ATPases (in words): Pma1 versus SERCA and Na+,K+-ATPase
T2 construct: containing the full-length cDNA of the S. cerevisiae plasma membrane H^+-ATPase isoform PMA1; made in house; host or cells: Saccharomyces cerevisiae RS72
T2 sequence (P05030 whole entry, canonical isoform): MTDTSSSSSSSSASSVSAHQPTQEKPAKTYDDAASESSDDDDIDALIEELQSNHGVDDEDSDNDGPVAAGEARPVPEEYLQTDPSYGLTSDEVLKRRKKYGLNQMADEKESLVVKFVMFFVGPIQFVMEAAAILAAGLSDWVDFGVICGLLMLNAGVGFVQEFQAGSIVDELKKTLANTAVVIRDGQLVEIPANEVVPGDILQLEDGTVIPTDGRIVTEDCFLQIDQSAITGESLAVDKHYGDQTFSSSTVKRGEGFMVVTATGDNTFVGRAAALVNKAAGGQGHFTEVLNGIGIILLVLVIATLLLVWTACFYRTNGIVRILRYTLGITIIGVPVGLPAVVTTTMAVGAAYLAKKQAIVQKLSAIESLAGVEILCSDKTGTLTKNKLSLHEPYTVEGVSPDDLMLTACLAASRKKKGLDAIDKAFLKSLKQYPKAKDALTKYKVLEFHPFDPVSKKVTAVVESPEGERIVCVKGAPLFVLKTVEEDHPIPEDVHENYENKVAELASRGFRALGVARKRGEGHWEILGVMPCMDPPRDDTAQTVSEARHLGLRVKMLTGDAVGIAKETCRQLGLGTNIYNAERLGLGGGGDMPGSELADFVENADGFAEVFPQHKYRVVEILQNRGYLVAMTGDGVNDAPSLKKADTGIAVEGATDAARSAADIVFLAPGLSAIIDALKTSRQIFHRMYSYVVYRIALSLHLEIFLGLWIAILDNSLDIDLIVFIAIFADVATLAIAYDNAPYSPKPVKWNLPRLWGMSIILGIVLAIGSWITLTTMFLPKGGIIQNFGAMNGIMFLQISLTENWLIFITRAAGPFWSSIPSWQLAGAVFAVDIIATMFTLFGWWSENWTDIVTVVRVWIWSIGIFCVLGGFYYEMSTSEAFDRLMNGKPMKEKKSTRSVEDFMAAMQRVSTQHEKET
Method: The compound libraries were purchased from Enamine Ltd, Ukraine and Chembridge Corp, USA. Library screening was performed in 96 well plates format and each compound was screened in the ATP hydrolysis assay at a final concentration of 20 μM. DMSO was used to determine the maximal ATPase activity and a blank with ATP in absence of Pma1 protein was used to determine the level of spontaneous ATP hydrolysis and used to determine background level. The percentage of compound inhibition was evaluated by subtracting the blank from each data point and normalizing to maximal ATP hydrolysis activity. […] Pma1 inhibitory hit compounds (IC50 <20 μM) with antifungal activity on both S. cerevisiae and C. albicans (MIC <100 μM) were re-purchased and re-evaluated to confirm the potency and identity of the compound.
Plasma membranes containing Pma1 were isolated from Saccharomyces cerevisiae RS72 cells containing the full-length cDNA of the S. cerevisiae plasma membrane H^+-ATPase isoform PMA1 under control of the PMA1 promoter as described.
as §1

[3] = tested on: Candida glabrata ATCC 90030; experiment: Fungal growth inhibition, C. glabrata ATCC 90030; type: cell-based; settings: Nakaseomyces glabratus, ATCC90030; MIC defined as 50% growth inhibition, 24 h, n = 3–6
Excerpt: as §2

[4] = tested on: Saccharomyces cerevisiae ATCC 9763; experiment: Fungal growth inhibition, S. cerevisiae ATCC 9763; type: cell-based; settings: ATCC9763, MIC defined as 50% growth inhibition, 24 h, n = 3–6
Excerpt: as §2

HepG2 cells = experiment: Hep G2 viability assay (XTT); type: cell-based, human; settings: for EC50: Homo sapiens, HepG2 proliferation, 72 h, XTT; for Fungal growth inhibition versus HepG2 proliferation (in words): comparison of MIC and HepG2 EC50
Method: In each well of a 96 well tissue culture plate (Greiner, catalog number GR-655180) 10,000 human hepatocyte HepG2 cells (Sigma-Aldrich, catalog number 85011430) were plated in 200 μL growth media (EMEM (Sigma-Aldrich, catalog number M2279), 2 mM L-Glutamine (Biological Industries, catalog number 03-020-1B), 1% non-essential amino acids (Biosera, catalog number XC-E1154/100), 10% fetal bovine serum (Biological Industries, catalog number BI-04-007-1A)), and incubated overnight at 37°C and 5% CO2. The following day, fresh growth media plus 2 μL compound in DMSO was added. The plate was incubated for a further 72 h at 37°C and 5% CO2. The media was replaced with 100 μL freshly prepared 0.5 mg/mL XTT sodium salt solution (Sigma-Aldrich, catalog number X4251) in RPMI-1640 (Sigma-Aldrich, catalog number R7509) with 3.83 μg/mL phenazine methosulfate (Sigma-Aldrich, catalog number P9625) and incubated 2–3 h at 37°C and 5% CO2. The color reaction was measured on a Victor X5 plate reader (Perkin-Elmer) at OD450, and the half maximal effective concentration (EC50) was calculated indicating the potency of tetrahydrocarbazole derivatives to inhibit HepG2 cell growth. Tamoxifen (Sigma-Aldrich, catalog number 85256) was used as a positive control compound while DMSO served as a negative control.

[5] = ATP hydrolysis IC50 Saccharomyces cerevisiae Pma1, racemic compounds, n = 3
[6] = Pma1 IC50, Pma1 species not specified

SMILES | IC50 (Mammalian SERCA) [µM] | Antifungal activity (in words) [1] | IC50 [2, 5] | Pma1 inhibition (in words) [2] | MIC [3] [µM] | MIC [4] [µM] | EC50 (HepG2 cells) [µM] | Fungal growth inhibition versus HepG2 proliferation (in words) (HepG2 cells) | Selectivity among P-type ATPases (in words) [2] | IC50 [2, 6] [µM] | MIC [1] [µM]
NC1CCCc2c1[nH]c1cc(OC(F)(F)F)ccc21 (centres unmarked) [Compound 4] | 1.55 ± 0.06 | weak antifungal activity | 75 ± 3.2 µM | weak inhibitors of Pma1 | 23.7 (≈ 6.41 µg/mL) | 7.5 (≈ 2.03 µg/mL) | 3.5 ± 1.87 | more potent at inhibiting HepG2 proliferation than fungal growth | – | – | –
CN1CCC(NC2CCCc3c2[nH]c2cc(OC(F)(F)F)ccc32)CC1 (centres unmarked) [Compound 5] | 61.7 ± 18.8 | weak antifungal activity | 85.9 ± 10.3 µM | weak inhibitors of Pma1 | 46.5 ± 27 (≈ 17.1 µg/mL) | 11.6 ± 8.1 (≈ 4.26 µg/mL) | 4.7 ± 3.4 | more potent at inhibiting HepG2 proliferation than fungal growth | – | – | –
FC(F)(F)Oc1ccc2c3c([nH]c2c1)C(NCc1ccc(Cl)cc1)CCC3 (centres unmarked) [Compound 6] | 0.09 ± 0.03 | – | 2.79 ± 0.36 µM | – | 12.1 ± 7.9 (≈ 4.78 µg/mL) | 5 ± 2.9 (≈ 1.97 µg/mL) | 16.7 ± 3.54 | inhibited fungal growth more strongly than HepG2 proliferation | more potent in inhibiting SERCA and the Na^+,K^+-ATPase than Pma1 | – | –
FC(F)(F)Oc1ccc2c3c([nH]c2c1)C(NCc1ccc(Br)cc1)CCC3 (centres unmarked) [Compound 7] | 0.11 ± 0.06 | – | 2.43 ± 0.39 µM | – | 15 (≈ 6.59 µg/mL) | 1.5 (≈ 0.659 µg/mL) | 14.9 ± 0.26 | – | more potent in inhibiting SERCA and the Na^+,K^+-ATPase than Pma1 | – | –
FC(F)(F)Oc1ccc2c3c([nH]c2c1)C(NCCOc1ccc(Cl)cc1)CCC3 (centres unmarked) [Compound 8] | 0.26 ± 0.06 | – | 3.57 ± 1.81 µM | – | 5.3 ± 2.7 (≈ 2.25 µg/mL) | 6.2 ± 2.6 (≈ 2.63 µg/mL) | 13.6 ± 1.33 | inhibited fungal growth more strongly than HepG2 proliferation | more potent in inhibiting SERCA and the Na^+,K^+-ATPase than Pma1 | – | –
FC(F)(F)Oc1ccc2[nH]c3c(c2c1)CCCC3NCc1ccc(-c2ccccn2)cc1 (centres unmarked) [Compound 9] | 3.27 ± 1.89 | – | 4.73 ± 2.23 µM | – | 7.5 (≈ 3.28 µg/mL) | 7.5 (≈ 3.28 µg/mL) | 12.5 ± 3.68 | inhibited fungal growth more strongly than HepG2 proliferation | – | 5 to 7 | –
Clc1ccc2[nH]c3c(c2c1)CCCC3NCc1ccc(-c2ccccc2)cc1 (centres unmarked) [Compound 10] | 5.54 ± 3.16 | – | 7 µM and 6.69 µM | – | 21 ± 6.6 (≈ 8.13 µg/mL) | 7.5 (≈ 2.9 µg/mL) | 18.6 ± 1.12 | inhibited fungal growth more strongly than HepG2 proliferation | – | 5 to 7 | –
Cn1c2c(c3cc(Cl)ccc31)CCCC2NCc1ccc(-c2ccccc2)cc1 (centres unmarked) [Compound 11] | > 20 | – | > 20 µM | no activity against Pma1; also recorded: no inhibitory effect on Pma1 | > 20 | > 20 | > 20 | – | – | – | > 20
CN(Cc1ccc(-c2ccccc2)cc1)C1CCCc2c1[nH]c1ccc(Cl)cc21 (centres unmarked) [Compound 12] | > 20 | – | > 20 µM | no activity against Pma1; also recorded: no inhibitory effect on Pma1 | > 20 | > 20 | > 20 | – | weakly selective for Na^+,K^+-ATPase only | – | > 20
